pIC50: −log10 of the molar value.

Experiment [1] deals with T1, BACE1 (Homo sapiens (Human), UniProt P56817). Briefly: In vitro enzymatic BACE1 FRET assay. It is filed as biochemical. Conditions: read-out: BACE1 Enzyme IC50.
Target sequence in this assay (P56817 46-501): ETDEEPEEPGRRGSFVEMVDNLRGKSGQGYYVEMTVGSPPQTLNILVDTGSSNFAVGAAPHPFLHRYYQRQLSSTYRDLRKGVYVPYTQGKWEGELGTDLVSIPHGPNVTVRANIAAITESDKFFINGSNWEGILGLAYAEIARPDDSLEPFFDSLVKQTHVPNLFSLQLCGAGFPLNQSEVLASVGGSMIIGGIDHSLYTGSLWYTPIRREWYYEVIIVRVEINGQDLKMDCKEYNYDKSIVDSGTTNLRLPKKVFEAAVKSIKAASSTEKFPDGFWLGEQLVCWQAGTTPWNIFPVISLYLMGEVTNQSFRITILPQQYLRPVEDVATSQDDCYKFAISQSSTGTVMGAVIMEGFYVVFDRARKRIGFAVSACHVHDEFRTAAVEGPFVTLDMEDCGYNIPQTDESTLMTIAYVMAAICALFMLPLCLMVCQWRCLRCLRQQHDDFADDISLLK
Another experiment deals with β-secretase (Rattus norvegicus (Rat), UniProt P56819). Kind of experiment: In vivo inhibition of β-secretase: Aβ reduction in rat CSF and brain.
The target of another experiment is human recombinant BACE2 (Homo sapiens (Human), UniProt Q9Y5Z0). Briefly: In vitro enzymatic BACE2 FRET assay. The experiment is classed as biochemical. Conditions: read-out: BACE2 Enzyme IC50.
For experiment [2], the target named is T1, BACE1. Briefly: In vitro BACE1 cell-based assay (Aβ40 in conditioned medium of cells stably expressing APP, HTRF). Conditions: Aβ40 in conditioned media after 24 h incubation. On the technique in general: Time-resolved FRET reads energy transfer from a long-lived donor to a nearby acceptor.
Target sequence in this assay (P56817 46-501, species assumed): as the sequence (P56817 46-501) above
In a further experiment the target is Cathepsin D (CatD) (Homo sapiens (Human), UniProt P07339). Kind of experiment: In vitro enzymatic Cathepsin D (CatD) FRET assay. It is filed as biochemical. Particulars: read-out: Cat D Enzyme IC50.
Sequence of Cathepsin D (CatD) (P07339 65-412, species assumed): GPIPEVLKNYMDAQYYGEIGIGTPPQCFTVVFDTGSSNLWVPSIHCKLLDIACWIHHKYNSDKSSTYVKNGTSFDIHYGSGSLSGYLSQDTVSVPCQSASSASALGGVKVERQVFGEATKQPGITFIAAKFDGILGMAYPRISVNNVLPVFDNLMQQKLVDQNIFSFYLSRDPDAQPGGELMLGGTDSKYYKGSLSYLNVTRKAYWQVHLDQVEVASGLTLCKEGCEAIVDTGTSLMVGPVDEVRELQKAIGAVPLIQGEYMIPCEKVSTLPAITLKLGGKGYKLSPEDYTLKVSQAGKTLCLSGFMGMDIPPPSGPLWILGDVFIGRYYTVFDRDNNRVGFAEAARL

Sequence of β-secretase (P56819 46-501): as the sequence (P56817 46-501) above, with G82S, V162I, L165I, S180T, V182A, I340V, L393A, Q443H counted along it
Sequence of human recombinant BACE2 (Q9Y5Z0 63-518): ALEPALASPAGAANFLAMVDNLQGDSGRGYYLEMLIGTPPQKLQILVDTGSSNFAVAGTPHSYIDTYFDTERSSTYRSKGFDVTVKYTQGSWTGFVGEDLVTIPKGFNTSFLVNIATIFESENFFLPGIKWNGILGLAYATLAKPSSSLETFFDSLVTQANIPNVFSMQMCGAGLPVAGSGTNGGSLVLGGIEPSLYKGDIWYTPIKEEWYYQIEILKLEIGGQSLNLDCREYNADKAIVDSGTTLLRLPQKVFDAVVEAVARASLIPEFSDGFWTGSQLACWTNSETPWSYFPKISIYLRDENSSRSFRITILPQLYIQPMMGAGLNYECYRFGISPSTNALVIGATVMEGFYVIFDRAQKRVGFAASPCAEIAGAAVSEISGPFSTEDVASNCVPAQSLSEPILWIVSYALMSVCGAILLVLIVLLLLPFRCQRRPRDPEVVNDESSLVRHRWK
Protocol for β-secretase: In Vivo Inhibition of β-Secretase
Animals to be used in this experiment can be wild type, transgenic, or gene knockout animals.
A separate group of animals receive 2% hydroxypropyl methylcellulose, 1% Tween80 alone, containing no test compound, and serve as a vehicle-control group. At the end of the test period, animals are sacrificed and brain tissues, plasma or cerebrospinal fluid are collected. […] Homogenates are centrifuged at 355,000 g, 4° C. for 30 minutes. CSF or brain supernatants are then analyzed for the presence of Aβ by specific sandwich ELISA assays based on ECL (Electrochemiluminescence) technology. For example, rat Aβ40 is measured using biotinylated-4G8 (Signet) as a capture antibody and Fab40 (an in-house antibody specific to the C-terminal of Aβ40) as a detection antibody.

Regarding `CN1C(N)=N[C@](C)(c2cc(/C=C(\F)c3ccc(C#N)cn3)ccc2F)C2(CC2)S1(=O)=O` [Example 127, (R,Z)-6-(2-(3-(6-amino-5,8-dimethyl-4,4-dioxido-4-thia-5,7-diazaspiro[2.5]oct-6-en-8-yl)-4-fluorophenyl)-1-fluorovinyl)nicotinonitrile], the pIC50 (commonly the negative decadic logarithm of the IC50, by convention in mol/L) on BACE1 [1] is 8.22; on human recombinant BACE2 it was 6.76; on BACE1 [2], 8.10; on Cathepsin D (CatD) it was 3.89. Besides, the “% Aβ reduction in rat CSF at 10 mpk” value at β-secretase came out at 64%. The “% Aβ reduction in rat brain at 10 mpk” value at β-secretase was 70%.

`C#C[C@H](C)Oc1cnc(/C(F)=C/c2ccc(F)c([C@@]3(C)N=C(N)[C@@]4(CF)CC[C@@H]3S4(=O)=O)c2)cn1` [Example 128, (1R,4R,5S)-2-amino-4-(5-((Z)-2-(5-((S)-but-3-yn-2-yloxy)pyrazin-2-yl)-2-fluorovinyl)-2-fluorophenyl)-1-(fluoromethyl)-4-methyl-8-thia-3-azabicyclo[3.2.1]oct-2-ene 8,8-dioxide]: the pIC50 on BACE1 [1] is 8.40; on human recombinant BACE2 it was 6.83; on BACE1 [2] it was 7.74; on Cathepsin D (CatD), 3.90. Moreover, the “% Aβ reduction in rat CSF at 10 mpk” value at β-secretase turned out to be 33%. Further, the “% Aβ reduction in rat brain at 10 mpk” value at β-secretase is 35%.

On to `Cc1noc(COc2cnc(/C(F)=C/c3ccc(F)c([C@]4(C)CS(=O)(=O)N(C)C(N)=N4)c3)cn2)n1` [Example 146, (R,Z)-3-amino-5-(2-fluoro-5-(2-fluoro-2-(5-((3-methyl-1,2,4-oxadiazol-5-yl)methoxy)pyrazin-2-yl)vinyl)phenyl)-2,5-dimethyl-5,6-dihydro-2H-1,2,4-thiadiazine 1,1-dioxide], for which the pIC50 was 8.52 at BACE1 [1], 7.01 at human recombinant BACE2, 8.22 on BACE1 [2] and 3.82 at Cathepsin D (CatD). Besides, on β-secretase, the “% Aβ reduction in rat CSF at 10 mpk” value came to 12%. In addition, the “% Aβ reduction in rat brain at 10 mpk” value at β-secretase is given as 16%.

For `CC#C[C@H](CC)Oc1cnc(/C(F)=C/c2ccc(F)c([C@]3(C)CS(=O)(=O)C(C)(C)C(N)=N3)c2)cn1` [Example 199, (R)-5-amino-3-(2-fluoro-5-((Z)-2-fluoro-2-(5-((S)-hex-4-yn-3-yloxy)pyrazin-2-yl)vinyl)phenyl)-3,6,6-trimethyl-3,6-dihydro-2H-1,4-thiazine 1,1-dioxide], on β-secretase, the “% Aβ reduction in rat CSF at 10 mpk” value is on record as 43% and the “% Aβ reduction in rat brain at 10 mpk” value was 58%.

For `Cc1cc(C#N)cnc1/C(F)=C/c1cc(F)c(F)c([C@]2(C)CS(=O)(=O)N(C)C(N)=N2)c1` [Example 275, (R,Z)-6-(2-(3-(3-amino-2,5-dimethyl-1,1-dioxido-5,6-dihydro-2H-1,2,4-thiadiazin-5-yl)-4,5-difluorophenyl)-1-fluorovinyl)-5-methylnicotinonitrile], the pIC50 on BACE1 [1] was 9.00; at human recombinant BACE2, 8.05; on BACE1 [2], 7.85; on Cathepsin D (CatD) it was 4.25.

Consider `CN1C(N)=N[C@](C)(c2cc(/C=C(\F)c3ncc(C#N)cc3Cl)cc(F)c2F)CS1(=O)=O` [Example 276, (R,Z)-6-(2-(3-(3-amino-2,5-dimethyl-1,1-dioxido-5,6-dihydro-2H-1,2,4-thiadiazin-5-yl)-4,5-difluorophenyl)-1-fluorovinyl)-5-chloronicotinonitrile], for which the pIC50 on BACE1 [1] is 8.70; at human recombinant BACE2, 8.22; against BACE1 [2], 7.77; on Cathepsin D (CatD), 4.24.

As for `CC1(C)C(N)=N[C@](C)(c2cc(/C=C/c3ccc(Cl)cc3)ccc2F)CS1(=O)=O` [Example 279, (R,E)-5-amino-3-(5-(4-chlorostyryl)-2-fluorophenyl)-3,6,6-trimethyl-3,6-dihydro-2H-1,4-thiazine 1,1-dioxide], the pIC50 was 7.25 on BACE1 [1], 7.25 on human recombinant BACE2, 6.35 on BACE1 [2] and 4.41 at Cathepsin D (CatD).
